According to patent publication US7273846B2, “Selective melanin-concentrating hormone type-1 receptor agonists” (priority 2002, dated 2007):
Residues, ends and D or L forms follow the SMILES beside them.

Assays:
MCH-2R [1] = molecular target: T1, MCH-2R (Homo sapiens, UniProt Q969V1); assay: Aequorin bioluminescence functional assay, 293AEQ17/MCH-2R cells; format: cell-based; design: expressed in transfected cells; MCH-2R Activation %: concentration or dose not given beside the values; details: for MCH-2R Activation %: human MCH = 100
Text: (§1) The aequorin bioluminescence assay is a reliable test for identifying G-protein-coupled receptors that couple through the G protein subunit family consisting of Gq and G11. Gq and G11 coupling leads to the activation of phospholipase C, mobilization of intracellular calcium, and activation of protein kinase C.
Stable cell lines expressing either the MCH-1R or the MCH-2R and the aequorin reporter protein were used.
(§2) The cells were harvested, washed once in ECB medium, and resuspended to 500,000 cells/mL. 100 μL of cell suspension (corresponding to 5×10^4 cells) was then injected into the test plate containing the hMCH peptides, and the integrated light emission was recorded over 30 seconds, in 0.5-s units. 20 μL of lysis buffer (0.1% final Triton X-100 concentration) was then injected and the integrated light emission recorded over 10 seconds, in 0.5-s units. The “fractional response” values for each well were calculated by taking the ratio of the integrated response to the initial challenge to the total integrated luminescence including the Triton X-100 lysis response.

MCH-1R [2] = molecular target: T2, MCH-1R (Homo sapiens, UniProt Q99705); assay: Aequorin bioluminescence functional assay, 293AEQ17/MCH-1R cells; format: cell-based; design: expressed in transfected cells; details: for MCH-1R Activation %: human MCH = 100, activation at 10 μM concentration; for EC50: aequorin, 293AEQ17/MCH-1R cells, read-out: MCH-1R EC50
Procedure: as §1
Stable cell lines expressing either the MCH-1R or the MCH-2R and the aequorin reporter protein were used. The assay was performed using a Luminoskan RT luminometer (Labsystems Inc., Gaithersburg, Md.) controlled by custom software written for a Macintosh PowerPC 6100.
as §2

MCH-2R [3] = molecular target: T1, MCH-2R; assay: Radioligand binding assay (SPA), MCH-2R; details: for IC50: MCH-2R IC50, [125I]-[Phe13,Tyr19]-hMCH SPA, COS or CHO MCH-2R membranes
MCH-1R [4] = molecular target: T2, MCH-1R; assay: biochemical
MCH-1R [5] = molecular target: T2, MCH-1R

T2 sequence (Q99705 whole entry): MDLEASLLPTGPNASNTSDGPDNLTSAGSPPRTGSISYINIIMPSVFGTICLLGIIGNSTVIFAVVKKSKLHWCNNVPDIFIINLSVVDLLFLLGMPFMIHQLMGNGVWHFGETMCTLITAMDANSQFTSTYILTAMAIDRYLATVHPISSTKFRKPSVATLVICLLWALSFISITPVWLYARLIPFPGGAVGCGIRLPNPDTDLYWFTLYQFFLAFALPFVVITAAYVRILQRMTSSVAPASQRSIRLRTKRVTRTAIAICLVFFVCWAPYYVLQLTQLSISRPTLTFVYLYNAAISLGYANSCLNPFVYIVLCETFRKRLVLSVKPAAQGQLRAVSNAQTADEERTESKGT
T1 sequence (Q969V1 whole entry): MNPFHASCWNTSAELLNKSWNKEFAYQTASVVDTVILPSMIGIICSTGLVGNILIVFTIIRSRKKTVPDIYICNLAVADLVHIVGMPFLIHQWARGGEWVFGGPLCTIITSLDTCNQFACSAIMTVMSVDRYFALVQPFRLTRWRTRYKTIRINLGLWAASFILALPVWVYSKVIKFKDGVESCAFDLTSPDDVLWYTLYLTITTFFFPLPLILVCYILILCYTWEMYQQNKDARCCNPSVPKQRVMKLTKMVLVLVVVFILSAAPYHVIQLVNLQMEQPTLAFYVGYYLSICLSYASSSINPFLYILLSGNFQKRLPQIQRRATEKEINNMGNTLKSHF

| EC50 (MCH-2R [1]; aequorin, 293AEQ17/MCH-2R cells) [nM] | MCH-2R Activation % (MCH-2R [1]) [%] | Selectivity 2/1 (MCH-2R/MCH-1R EC50 activity ratio) (MCH-1R [2]) | MCH-1R Activation % (MCH-1R [2]) [%] | fold weaker binding at hMCH-2R (MCH-2R [3]; relative to Ac-hMCH(6-16)-NH2) | IC50 (MCH-1R [4]) [nM] | binding to hMCH-1R in words (MCH-1R [5]) | Selectivity 2/1 (MCH-2R/MCH-1R IC50 binding ratio) (MCH-1R [5]) | EC50 (MCH-1R [2]) [nM] | IC50 (MCH-2R [3]) [nM] | fold more selective as agonist for hMCH-1R than hMCH-2R (MCH-1R [2]) | Compound | agonism at hMCH-1R in words (MCH-1R [2]) |
| --- | --- | --- | --- | --- | --- | --- | --- | --- | --- | --- | --- | --- |
| 55 | 83 | 0.5 | 130 | more than 10 fold | 35 | equipotent to Ac-hMCH(6-16)-NH2 | 130 |  |  |  | CSCC[C@@H]1NC(=O)[C@@H](NC(=O)[C@H](N)CCCNC(=N)N)CSSC[C@@H](C(N)=O)NC(=O)[C@@H]2CCCN2C(=O)[C@H](CCCNC(=N)N)NC(=O)[C@H](Cc2ccc(O)cc2)NC(=O)[C@H](C(C)C)NC(=O)[C@H](CCCNC(=N)N)NC(=O)CNC(=O)[C@H](CC(C)C)NC1=O [SEQ. ID. NO. 4] |  |
|  | 55 | 22 | 130 |  | 0.3 |  | 3800 |  |  |  | CSCC[C@@H]1NC(=O)[C@@H](NC(=O)[C@@H](CCCCN)NC(C)=O)CSSC[C@@H](C(N)=O)NC(=O)[C@@H]2CCCN2C(=O)[C@H](CCCNC(=N)N)NC(=O)[C@H](Cc2ccc(O)cc2)NC(=O)[C@H](C(C)C)NC(=O)[C@H](CCCNC(=N)N)NC(=O)CNC(=O)[C@H](CC(C)C)NC1=O [SEQ. ID. NO. 13] |  |
|  | 88 | 0.75 | 75 |  | 0.1 |  | 19 | 66 | 1.9 |  | CSCC[C@@H]1NC(=O)[C@@H](NC(=O)[C@H](CCCNC(=N)N)NC(C)=O)CSSC[C@@H](C(N)=O)NC(=O)[C@@H]2CCCN2C(=O)[C@H](CCCNC(=N)N)NC(=O)[C@H](Cc2ccc(O)cc2)NC(=O)[C@H](C(C)C)NC(=O)[C@H](CCCNC(=N)N)NC(=O)[C@H](Cc2ccccc2)NC(=O)[C@H](CC(C)C)NC1=O [SEQ. ID. NO. 20] (HELM PEPTIDE1{[ac].R.C.M.L.F.R.V.Y.R.P.C.[am]}$PEPTIDE1,PEPTIDE1,3:R3-12:R3$$$V2.0) |  |
|  | 86 | 4.7 | 126 |  | 0.28 |  | 1800 | 51 |  |  | CSCC[C@@H]1NC(=O)[C@@H](NC(=O)[C@H](CCCNC(=N)N)NC(C)=O)CSSC[C@@H](C(N)=O)NC(=O)[C@@H]2CCCN2C(=O)[C@H](CCCNC(=N)N)NC(=O)[C@H](Cc2ccc(O)cc2)NC(=O)[C@H](C(C)C)NC(=O)[C@H](CCCNC(=N)N)NC(=O)[C@H](CC(N)=O)NC(=O)[C@H](CC(C)C)NC1=O [SEQ. ID. NO. 25] (HELM PEPTIDE1{[ac].R.C.M.L.N.R.V.Y.R.P.C.[am]}$PEPTIDE1,PEPTIDE1,3:R3-12:R3$$$V2.0) |  |
|  | 87 | 0.7 | 120 |  |  |  | 100 |  | 55 |  | CSCC[C@@H]1NC(=O)[C@@H](NC(=O)[C@H](CCCNC(=N)N)NC(C)=O)CSSC[C@@H](C(N)=O)NC(=O)[C@@H]2CCCN2C(=O)[C@H](CCCNC(=N)N)NC(=O)[C@H](Cc2ccc(O)cc2)NC(=O)[C@H](C(C)C)NC(=O)[C@H](CCCNC(=N)N)NC(=O)[C@H](CO)NC(=O)[C@H](CC(C)C)NC1=O [SEQ. ID. NO. 26] (HELM PEPTIDE1{[ac].R.C.M.L.S.R.V.Y.R.P.C.[am]}$PEPTIDE1,PEPTIDE1,3:R3-12:R3$$$V2.0) |  |
|  | 20 | 150 | 120 |  | 0.5 |  | 6600 |  |  | about 150 fold | CSCC[C@@H]1NC(=O)[C@@H](NC(=O)[C@@H](CCCNC(=N)N)NC(C)=O)CSSC[C@@H](C(N)=O)NC(=O)[C@@H]2CCCN2C(=O)[C@H](CCCNC(=N)N)NC(=O)[C@H](Cc2ccc(O)cc2)NC(=O)[C@H](C(C)C)NC(=O)[C@H](CCCNC(=N)N)NC(=O)[C@H](CC(N)=O)NC(=O)[C@H](CC(C)C)NC1=O [SEQ. ID. NO. 29] (HELM PEPTIDE1{[ac].[dR].C.M.L.N.R.V.Y.R.P.C.[am]}$PEPTIDE1,PEPTIDE1,3:R3-12:R3$$$V2.0) | activated hMCH-1R almost as efficiently as Ac-hMCH(6-16)NH2 |
|  | 23 | 23 | 130 |  | 0.28 |  | 5700 |  |  |  | CCCC[C@@H]1NC(=O)[C@@H](NC(=O)[C@@H](CCCNC(=N)N)NC(C)=O)CSSC[C@@H](C(N)=O)NC(=O)[C@@H]2CCCN2C(=O)[C@H](CCCNC(=N)N)NC(=O)[C@H](Cc2ccc(O)cc2)NC(=O)[C@H](C(C)C)NC(=O)[C@H](CCCNC(=N)N)NC(=O)[C@H](CC(N)=O)NC(=O)[C@H](CC(C)C)NC1=O [SEQ. ID. NO. 31] (HELM PEPTIDE1{[ac].[dR].C.[Nle].L.N.R.V.Y.R.P.C.[am]}$PEPTIDE1,PEPTIDE1,3:R3-12:R3$$$V2.0) | potent and selective hMCH-1R agonists |
